Assay results from US20100119516A1, “ANTI-TGF-BETA RECEPTOR II ANTIBODIES” (priority 2008, published 2010).

Test system: EMT6 mouse tumor cells
Assay: EMT6 s.c. tumor model (monotherapy and combination with cyclophosphamide)
Assay type: in vivo, mice
Conditions: i.p. 3 times each week, mAb 40 mg/kg, CTX 80 mg/kg
From the text: Athymic nude mice (Charles River Laboratories, Wilmington, Mass.), Balb/c mice, or C57B6 mice (Charles River Laboratories, Wilmington, Mass.) may be used for inoculation with mouse or human carcinoma cells. For treatment of established tumors in subcutaneous models, tumors may be allowed to grow to approximately 200 mm^3 in size, and then mice may be randomized into groups of 12-15 animals per group. In lung metastasis models, mice may be injected intravenously with tumor cells via tail vein. Animals may receive i.p. administered anti-TGFβRII mAb at a dose of 10-40 mg/kg three times each week. Mice in control groups may receive an equal volume of saline or normal IgG solution. […] Tumors may be measured twice each week with calipers. Tumor volumes may be calculated using the formula [π/6 (w1×w2×2)], where “w1” represents the largest tumor diameter and “w2” represents the smallest tumor diameter. […]
The inhibitory activity of mAb MT1 against immunosuppressive cells, i.e. CD4/CD25/Foxp3/TGFβRII+Treg cells and Gr-1+/CD11b+/TGFβRII+ myeloid cells is evaluated in an EMT6 s.c. tumor model. The inhibitory effect of anti-TGFβRII antibody on Treg and Gr-1+/CD11b+ myeloid cell population in tumor-bearing mice may be determined by FACS analysis on the alteration of Gr-1+/CD11b+ population and CD4/CD25/Foxp3/TGFβRII+ and Gr-1+/CD11b+/TGFβRII+ population after treatment of mice with mAb MT1. […]

For `O=P1(N(CCCl)CCCl)NCCCO1` (centres unmarked) [CTX, Cyclophosphamide], the “inhibition of primary tumor growth” value was 62% and the “inhibition of spontaneous pulmonary metastasis” value was 96%.
